According to PMC2893389 (Biochemistry, 2010):
Changes are numbered by the printed parent chain. Numbers in names are those of the source. Where “and” joins values, the source holds several entries; their conditions need not be identical. Equal entries are not always repeated. Where two headings read alike, the source gives them in different places.

Experiments:
WT rat cPEPCK [1] = target: T1, WT rat cPEPCK (Rattus norvegicus, UniProt P07379); assay: Assay B: PEP+GDP+CO2→OAA+GTP, coupled MDH assay; format: biochemical; conditions: Wild-type, 25 °C
T1 sequence (P07379 1-622): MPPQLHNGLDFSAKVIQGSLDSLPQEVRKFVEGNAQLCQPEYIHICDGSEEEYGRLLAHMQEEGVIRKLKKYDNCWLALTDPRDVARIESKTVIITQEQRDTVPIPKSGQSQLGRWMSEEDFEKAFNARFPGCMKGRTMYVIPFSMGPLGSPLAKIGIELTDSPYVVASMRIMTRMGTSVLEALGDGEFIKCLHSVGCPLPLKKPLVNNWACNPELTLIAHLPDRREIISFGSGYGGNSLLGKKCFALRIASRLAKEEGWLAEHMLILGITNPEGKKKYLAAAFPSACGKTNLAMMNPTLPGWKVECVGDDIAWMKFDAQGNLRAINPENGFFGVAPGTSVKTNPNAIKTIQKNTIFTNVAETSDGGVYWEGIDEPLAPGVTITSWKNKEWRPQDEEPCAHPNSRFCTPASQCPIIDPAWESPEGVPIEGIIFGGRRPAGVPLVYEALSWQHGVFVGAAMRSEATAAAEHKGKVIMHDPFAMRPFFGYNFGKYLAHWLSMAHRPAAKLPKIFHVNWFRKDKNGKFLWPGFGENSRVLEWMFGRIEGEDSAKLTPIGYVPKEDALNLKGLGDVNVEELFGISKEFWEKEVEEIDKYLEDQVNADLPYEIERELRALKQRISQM

[2] = target: T2, A467G PEPCK (rat cPEPCK mutant) (Rattus norvegicus, UniProt P07379, A467G); assay: Assay B: PEP+GDP+CO2→OAA+GTP, coupled MDH assay; format: biochemical
T2 sequence (P07379 1-622 A467G): T1 sequence (P07379 1-622) with A467G

[3] = target: T2, A467G PEPCK (rat cPEPCK mutant); assay: Assay A: OAA+GTP→PEP+CO2+GDP, coupled PK/LDH assay; format: biochemical
WT rat cPEPCK [4] = target: T1, WT rat cPEPCK; assay: Assay A: OAA+GTP→PEP+CO2+GDP, coupled PK/LDH assay; format: biochemical
WT rat cPEPCK [5] = target: T1, WT rat cPEPCK; assay: Assay C: OAA+GTP→pyruvate+GTP+CO2; format: biochemical; conditions: WT PEPCK; GTPγS in place of GTP
[6] = target: T2, A467G PEPCK (rat cPEPCK mutant); assay: Assay D: OAA+GDP→pyruvate+GDP+CO2; format: biochemical
WT rat cPEPCK [7] = target: T1, WT rat cPEPCK; assay: Inhibitor assays with substrate analogues
[8] = target: T2, A467G PEPCK (rat cPEPCK mutant); assay: Inhibitor assays with substrate analogues; conditions: for change in affinity, A467G vs WT: from Ki values of the inhibition experiments
PEPCK = conditions: pyruvate only weakly associates with PEPCK; cited from earlier work
[9] = substrate: O=C(O)CC(=O)C(=O)O; assay: purified protein, by the assay type; format: biochemical, rat; conditions: OAA + GDP → Pyruvate + GDP + CO2, 25 °C
[10] = WT PEPCK, slow substrate GTPγS in place of GTP, OAA→PEP

Molecule O=C=O [CO2] has a Km (WT rat cPEPCK [1]; labelled substrate varied) of 1190 ± 109 µM and a Km ([2]; A467G, PEP + CO2 + GDP → OAA + GTP, 25 °C, labelled substrate varied) of 814 ± 98 µM.

With Nc1nc2c(ncn2[C@@H]2O[C@H](COP(=O)(O)OP(=O)(O)O)[C@@H](O)[C@H]2O)c(=O)[nH]1 [GDP, guanosine-5′-diphosphate] the “kcat/KM of A467G as % of WT” value ([2]; assay B, PEP→OAA) was 3%.

In the case of Nc1nc2c(ncn2[C@@H]2O[C@H](COP(=O)(O)OP(=O)(O)OP(=O)(O)O)[C@@H](O)[C@H]2O)c(=O)[nH]1 [GTP, guanosine-5′-triphosphate], the “change in KM, A467G vs WT (factor)” value ([3]; assay A, OAA→PEP) is reported as 1.4 and the “decrease in kcat/KM, A467G vs WT” value ([3]; assay A, OAA→PEP) is reported as “less than a factor of three”.

With Nc1nc2c(ncn2[C@@H]2O[C@H](COP(=O)(O)OP(=O)(O)OP(O)(O)=S)[C@@H](O)[C@H]2O)c(=O)[nH]1 [GTPγS, guanosine 5′-O-[gamma-thio]triphosphate] the Km (WT rat cPEPCK [4]; [10]) was 39 µM, the kcat (WT rat cPEPCK [4]; [10]) was 13 s⁻¹ and the “pyruvate formation during the OAA→PEP reaction” value (WT rat cPEPCK [5]) was “did not observe any pyrvuate formation”.

For O=C(O)CC(=O)C(=O)O [OAA, oxaloacetic acid], the “kcat/KM of A467G as % of WT” value ([3]; assay A, OAA→PEP) was 1.9% and 2%, the “KM of A467G relative to WT” value ([3]; assay A, OAA→PEP, higher in A467G) was 14 fold and the “efficiency of WT relative to A467G at catalyzing decarboxylation of OAA” value [6] was 20 fold.

In the case of C=C(OP(=O)(O)O)C(=O)O [PEP, phosphoenolpyruvate], the “KM of A467G as % of WT” value ([2]; assay B, PEP→OAA) is reported as 21% and ~ 21% and the “reduction in catalytic efficiency of A467G relative to WT” value ([2]; assay B, PEP→OAA) is reported as “factor of four”.

With O=C(O)COP(=O)(O)O [PGA, 2-phosphoglycolate] the Ki (WT rat cPEPCK [7]; Wild-type, assay B, against PEP, 25 °C) was 2530 ± 13 µM and the “change in affinity, A467G vs WT” value [8] was “increases by less than a factor of two”.

In the case of O=C(O)C(=O)O [oxalate], the Ki (WT rat cPEPCK [7]) is reported as 106 ± 6 µM, the “change in affinity, A467G vs WT” value [8] is reported as “approximately a factor of eight” and the “loss in binding energy / decreased stabilization in A467G vs WT” value ([8]; from oxalate Ki, extrapolated to the enolate intermediate) is reported as ~ 5.3 kJ mol^−1.

In the case of CC(=O)C(=O)O [pyruvate], the Ki (PEPCK) is given as 9000 µM.

In the case of O=C(O)C(=O)CS(=O)(=O)O [βSP, 3-sulfopyruvate], the Ki (WT rat cPEPCK [7]; Wild-type, assay A, against OAA, competitive (slope) Ki, 25 °C) is reported as 26 ± 1 µM and the “change in affinity, A467G vs WT” value [8] is reported as “factor of approximately two”.

B1: WT rat cPEPCK (Rattus norvegicus) (protein)
chain: T1 sequence (P07379 1-622)
B1 showed a kcat (WT rat cPEPCK [4]; Wild-type, OAA + GTP → PEP + GDP + CO2, 25 °C) of 54 ± 0.2 s⁻¹, a kcat (WT rat cPEPCK [1]) of 19 ± 0.8 s⁻¹ and a Km ([9]; other: Wild-type) of 117 ± 11 µM. The kcat ([9]; other: Wild-type) was 2.3 ± 0.1 s⁻¹ and the kcat/Km ([9]; other: Wild-type) was 20000 M⁻¹ s⁻¹.

B2: A467G PEPCK (rat cPEPCK mutant) (Rattus norvegicus; A467G) (protein)
chain: T1 sequence (P07379 1-622) with A467G
Molecule B2 has a kcat ([3]; A467G, OAA + GTP → PEP + GDP + CO2, 25 °C) of 14 ± 0.1 s⁻¹, a kcat ([2]; A467G, PEP + CO2 + GDP → OAA + GTP, 25 °C) of 1 ± 0.1 s⁻¹ and a Km ([9]; other: A467G) of 970 ± 118 µM. For the same molecule, the kcat ([9]; other: A467G) was 1.3 ± 0.1 s⁻¹ and the kcat/Km ([9]; other: A467G) was 1000 M⁻¹ s⁻¹.
